Values quoted from earlier work in US20230149278A1, “METHOD FOR DYEING KERATIN MATERIAL, COMPRISING THE USE OF AN ORGANOSILICON COMPOUND, A POLYSACCHARIDE, A COLORING COMPOUND AND A POST-TREATMENT AGENT” (Henkel AG & Co. KGaA, priority 2020, published 2023).

Details: water at 25° C.

**Q.** Which “solubility in water (in words)” value does the source give for `O=C(O)C1=NN(c2ccc(S(=O)(=O)O)cc2)C(=O)C1N=Nc1ccc(S(=O)(=O)O)cc1` (stereo not drawn) [Acid Yellow 23, 4,5-dihydro-5-oxo-1-(4-sulfophenyl)-4-((4-sulfophenyl)azo)-1H-pyrazole-3-carboxylic acid] here?
**A.** The value was “readily soluble”.

Same assay, conditions: water, 25° C.

**Q.** Which solubility in water does the source give for `CCN(Cc1cccc(S(=O)(=O)[O-])c1)c1ccc(C(=C2C=CC(=[N+](CC)Cc3cccc(S(=O)(=O)[O-])c3)C=C2)c2ccccc2S(=O)(=O)[O-])cc1.[Na+].[Na+]` [Acid Blue 9] here?
**A.** The solubility in water was “more than 20 wt. %”.

**Q.** For `O=S(=O)([O-])c1ccc(N=Nc2c(O)ccc3ccccc23)cc1.[Na+]` [Acid Orange 7, sodium salt of 4-[(2-hydroxy-1-naphthyl)azo]benzene sulfonate], which solubility in water is on record?
**A.** The solubility in water was “more than 7 g/L”.

**Q.** For `Nc1cc(S(=O)(=O)[O-])cc2cc(S(=O)(=O)[O-])c(N=Nc3ccccc3)c(O)c12.[Na+].[Na+]` [Acid Red 33, disodium salt of 5-amino-4-hydroxy-3-(phenylazo)-naphthalene-2,7-disulphonate], which solubility in water is on record?
**A.** Its solubility in water is 2,5 g/L.

**Q.** Which solubility in water does the source give for `O=C([O-])c1c(Cl)c(Cl)c(Cl)c(Cl)c1-c1c2c(Br)cc(=O)c(Br)c-2oc2c(Br)c(O)cc(Br)c12.O=C([O-])c1c(Cl)c(Cl)c(Cl)c(Cl)c1-c1c2c(Br)cc(=O)c(Br)c-2oc2c(Br)c(O)cc(Br)c12.[Na+].[Na+]` [Acid Red 92, disodium salt of 3,4,5,6-tetrachloro-2-(1,4,5,8-tetrabromo-6-hydroxy-3-oxoxanthen-9-yl)benzoic acid] here?
**A.** Its solubility in water is “greater than 10 g/L”.

**Q.** With “mixture of the sodium salts of mono- and disulfonic acids of 2-(2-quinolyl)-1H-indene-1,3(2H)-dione [Acid Yellow 3]” as the compound, how does the solubility in water read?
**A.** Its solubility in water is 20 g/L.
